The values below are quoted from earlier work in patent publication US12678439B2 (DOUGLAS PHARMACEUTICALS LIMITED, priority 2018, dated 2026).

Regarding `Cc1cccc(C)c1OCC(=O)N[C@@H](Cc1ccccc1)[C@@H](O)C[C@H](Cc1ccccc1)NC(=O)[C@H](C(C)C)N1CCCNC1=O` (relative stereo) [Lopinavir, [1S-[1R*(R*), 3R*, 4R*]]—N-[4-[(2,6-dimethylphenoxyl0acetyl]amino]-3-hydroxy-5-phenyl-1-(phenylmethyl)pentyl]tetrahydro-alpha-(1-methylethyl)-2-oxo-1(2H)-pyrimidineacetamide], the solubility in water entry is “virtually insoluble”.
